Results reported in patent publication US20220257604A1, “COMPOSITIONS AND METHODS FOR […] INFECTIONS BY REGULATING GLUCOSYLCERAMIDES” (priority 2019, published 2022).

Columns and labels:
A549 cells [1] = type: cell-based, human; conditions: 40 minutes at 37° C., compared with GBA KO cells
A549 cells [2] = type: cell-based, human; conditions: WT A549 cells pretreated with nocodazole; EGF-555 100 ng/mL; 40 minutes at 37° C.; compared with GBA KO cells

Structure (SMILES): COC(=O)Nc1nc2ccc(C(=O)c3cccs3)cc2[nH]1 [nocodazole]
- colocalization of influenza with Lamp1 (Manders coefficient) (A549 cells [1]): not as strongly as in WT cells treated with nocodazole
- colocalization of EGF with Lamp1 (Manders coefficient) (A549 cells [2]): not as severe as seen in WT cells treated with nocodazole
